A value given as a limit tells only on which side of the number the result lay.

This data set in a line: Solubility in water at 20° C. of the iodine compounds. Conditions: % means % by weight.
Take `CCOC(=O)C(C)(C)I` [Reference Example 5, Ethyl 2-iodo-2-methylpropionate, reference compound]: the “Solubility in water (20° C.)” value is given as less than 0.1%.
As for `CC(C)(I)C(=O)[O-].[Na+]` [Example 5, Sodium 2-iodo-2-methylpropionate], the figure is more than 10%; as for `CCOC(=O)C(C)I` (centres unmarked) [Reference Example 4, Ethyl 2-iodopropionate, reference compound], 0.2%; as for `O=C(O)C(I)c1ccccc1` (centres unmarked) [Reference Example 1, 2-Iodo-2-phenylacetic acid, reference compound], 0.1%.
In the case of `O=C([O-])C(I)c1ccccc1.[Na+]` (centres unmarked) [Example 6, Sodium 2-iodo-2-phenylacetate], the “Solubility in water (20° C.)” value is more than 10%.
As for `CC(I)C(N)=O` (centres unmarked) [Example 2, 2-Iodopropionamide], the “Solubility in water (20° C.)” value came to 1.2%.
For `CC(C)(I)C(=O)O` [Example 1, 2-Iodo-2-methylpropionic acid], the “Solubility in water (20° C.)” value is listed as 1.9%.
As for `CC(C)(I)C(=O)OCCO` [Example 3, 2-Hydroxyethyl 2-iodo-2-methylpropionate], the figure is 3.2%.

These data come from patent publication US20210070687A1, “MOLECULAR WEIGHT CONTROLLING AGENT FOR RADICAL POLYMERIZATION, METHOD FOR PRODUCING POLYMER USING SAME, AND POLYMER” (SDP Global Co., Ltd., priority 2017, published 2021).
